Experimental data reported in ChEMBL document CHEMBL1201862, “PubChem BioAssay data set” (2004).
Blank lines part the entries; values can stand above or below the compound they belong to. Active and inactive are the calls of the source.

Columns and labels:
[1] = viability loss in HepG2 liver cells – cell-based, ATP luminescence, cherry-pick, set 6, cytotoxicity control, dose response (AID 1053125); format: functional
cells [2] = assay: cells
cells [3] = settings: A549
[4] = OVCAR-3 cell viability loss – plate reader, dry powder samples, PAX8 inhibitor project, dose response (AID 743044); format: functional, cell-based
[5] = PAX8-dependent cell viability loss – plate reader, dry powder, dose response (AID 743049); format: functional, cell-based
[6] = inhibitors acting on PAX2 in cells – cell-based, plate reader, dry powder samples, selectivity assay for PAX8 inhibitor project, dose response (AID 743048); format: functional;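 also: HEK293 cells carrying a WT1 promoter luciferase reporter driven by expressed Pax2; potency is for inhibition of Pax2 driven reporter signal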
[7] = PAX5 cellular inhibition readout – cell-based, plate reader, dry powder samples, selectivity assay for PAX8 inhibitor project, dose response (AID 743047); format: functional;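 also: HEK293 cells carrying a Pax5 driven CD19 promoter luciferase reporter; potency of inhibitors that lower reporter luminescence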
[8] = COV362 cell viability loss – plate reader, dry powder, SA12, cytotoxicity control for PAX8 inhibitor project, dose response (AID 743144); format: functional, cell-based
[9] = COV434 cell viability loss – plate reader, dry powder, SA7, cytotoxicity control for PAX8 inhibitor project, dose response (AID 743145); format: functional, cell-based
[10] = OV-90 cell viability loss – plate reader, dry powder, SA8, PAX8 inhibitor project, dose response (AID 743149); format: functional, cell-based
[11] = A2780 cell killing – plate reader, dry powder samples, cytotoxicity control, dose response (AID 743046); format: functional, cell-based
Paired box protein Pax-8 = Paired box protein Pax-8 (Homo sapiens, UniProt Q06710); assay: PAX8 transcriptional activity inhibition in RMG-I – RMG-I cells, luciferase, cherry-pick, dose response (AID 687027); format: functional, cell-based;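 also: luciferase reporter driven by Pax8 target thyroperoxidase promoter measured by SteadyGlo luminescence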
[12] = OVCAR4 cell viability loss – plate reader, dry powder, SA11, cytotoxicity control for PAX8 inhibitor project, dose response (AID 743150); format: functional, cell-based; settings: OVCAR-4
[13] = Trypanosoma cruzi growth suppression in host cells – NIH3T3 host cells, beta-gal luminescence, confirmation (AID 2044); format: functional, cell-based;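 also: intracellular parasites grown in NIH/3T3 mouse fibroblasts as host cells; luminescent beta-galactosidase reporter signal from transgenic T. cruzi replicating inside host cells; inhibitors lower the luminescence signal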
[14] = toxicity toward immortalized ovarian surface epithelium – cell-based, plate reader, dry powder samples, cytotoxicity control for PAX8 inhibitor project, dose response (AID 743045); format: functional
[15] = NIH3T3 cell viability loss – ATP luminescence, mouse fibroblasts, counter-screen, dose response (AID 2010); format: functional, cell-based;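 also: cells exposed to compound for about 90 hours before reading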
Cytochrome P450 3A4 = Cytochrome P450 3A4 (Homo sapiens, UniProt P08684);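 also: CYP3A4 tested as one member of a cytochrome P450 panel screen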
Kallikrein-7 = Kallikrein-7 (Homo sapiens, UniProt P49862); assay: Fluorescence Intensity-based biochemical primary high throughput dose response assay to identify activators of kallikrein-7 (K7) zymogen.
[16] = HIV-1 Vif–A3G interaction blockers – biochemical, TR-FRET, GST-Vif 1-94, biotin-A3G peptide, dose response retest, primary screen (AID 1117319); format: functional;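 also: TR-FRET signal of purified GST-Vif binding a biotinylated A3G peptide; inhibitors lower the FRET signal by blocking Vif and A3G binding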
Protein Tat = Protein Tat (Human immunodeficiency virus type 1 group M subtype B (isolate HXB2)(HIV-1), UniProt P04608); format: functional;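 also: tat binding to TAR RNA read out by fluorescence polarization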
Fibrinogen beta chain [17] = molecular target: T1, Fibrinogen beta chain (Homo sapiens, UniProt P02675); assay: Fluorescence polarization-based biochemical high throughput dose response assay to identify inhibitors that disrupt the binding of a cyclic peptide (Tn7) to the fibrin proteolytic product D-Dimer and fragment E complex [DD(E )].
[18] = molecular target: T2, Neuropeptide Y receptor type 1 (Homo sapiens, UniProt P25929); format: functional;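 also: HEK293 cells with a CNG channel challenged with NPY then isoproterenol; potency as antagonist that reverses NPY suppression of cAMP signal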
T2 sequence (P25929 whole entry): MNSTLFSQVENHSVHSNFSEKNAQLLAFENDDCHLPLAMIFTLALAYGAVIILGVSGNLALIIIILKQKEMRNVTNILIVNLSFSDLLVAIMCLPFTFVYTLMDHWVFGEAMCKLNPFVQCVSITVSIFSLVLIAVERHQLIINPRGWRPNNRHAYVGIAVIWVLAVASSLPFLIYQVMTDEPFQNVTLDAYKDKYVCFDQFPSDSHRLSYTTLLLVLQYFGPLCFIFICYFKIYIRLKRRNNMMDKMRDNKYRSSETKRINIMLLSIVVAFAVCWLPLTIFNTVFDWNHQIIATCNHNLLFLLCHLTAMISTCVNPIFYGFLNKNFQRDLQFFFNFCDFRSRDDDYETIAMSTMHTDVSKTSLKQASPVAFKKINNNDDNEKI

Fatty acid synthase [19] = molecular target: T3, Fatty acid synthase (Homo sapiens, UniProt P49327); assay: inhibition of human FAS-TE enzyme activity – biochemical, kinetic fluorescence intensity, dose response (AID 624326); format: functional;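 also: rate of fluorescence rise from hydrolysis of a fluorogenic O-methyl fluorescein ester substrate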
Fibrinogen beta chain [20] = molecular target: T1, Fibrinogen beta chain; assay: Fluorescence polarization-based biochemical high throughput dose response assay to identify inhibitors that disrupt the binding of a cyclic peptide (Tn6) to the fibrin proteolytic product D-Dimer and fragment E complex [DD(E )].
Fatty acid synthase [21] = molecular target: T3, Fatty acid synthase; assay: inhibition of human FAS-TE enzyme activity – biochemical, endpoint fluorescence intensity, uHTS hits, dose response (AID 624327); format: functional;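 also: fluorescence from hydrolysis of an O-methyl fluorescein acyl ester substrate by the enzyme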
[22] = molecular target: T4, Neuropeptide Y receptor type 2 (Homo sapiens, UniProt P49146); format: functional, cell-based;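 also: HEK293 cells expressing the receptor and a CNG channel; stimulus was NPY near EC95 followed by isoproterenol to raise cAMP; antagonist potency measured as restoring cAMP signal that NPY suppresses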
T4 sequence (P49146 whole entry): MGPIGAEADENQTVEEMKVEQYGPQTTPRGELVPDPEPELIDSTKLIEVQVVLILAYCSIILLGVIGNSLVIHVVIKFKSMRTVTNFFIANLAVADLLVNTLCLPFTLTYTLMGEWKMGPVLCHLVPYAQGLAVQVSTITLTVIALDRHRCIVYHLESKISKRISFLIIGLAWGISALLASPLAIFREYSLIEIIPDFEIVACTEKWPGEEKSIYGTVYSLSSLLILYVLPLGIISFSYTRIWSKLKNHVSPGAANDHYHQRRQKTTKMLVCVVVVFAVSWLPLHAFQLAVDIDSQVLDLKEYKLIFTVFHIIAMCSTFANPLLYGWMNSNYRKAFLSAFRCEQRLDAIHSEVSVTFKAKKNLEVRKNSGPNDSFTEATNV

[23] = viability loss in human Jurkat cells – cell-based, luminescence, cytotoxicity control for P. falciparum gametocyte viability project, dose response (AID 1117277); format: functional;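 also: potency reflects loss of cellular ATP meaning fewer viable cells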
[24] = viability inhibitors of stage V gametocytes – luminescence, dose response (AID 1117278); format: functional, cell-based;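 also: gametocytes exposed to compound for 24 hours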
[25] = molecular target: Disintegrin and metalloproteinase domain-containing protein 17 (Homo sapiens, UniProt P78536); assay: inhibition of ADAM17 substrate cleavage – biochemical, quenched FRET substrate, counter-screen for ADAM10 exosite inhibitor project, dose response (AID 743253)
[26] = fluconazole-exposed Candida albicans growth modulators – fluorescence, retest, confirmation (AID 2467); format: functional, cell-based
[27] = molecular target: T5, Serine/threonine-protein phosphatase (Candida dubliniensis (strain CD36 / CBS 7987 / NCPF 3949 / NRRLY-17841) (Yeast), UniProt B9W6M3); assay: blockers of CaCl2-induced CDRE-lacZ signaling – S. cerevisiae, luminescence, secondary, dose response (AID 2388); format: functional, cell-based;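 also: yeast reporter cells carrying a calcineurin-responsive lacZ construct stimulated with calcium chloride; luminescent beta-galactosidase reporter signal in whole cells rather than isolated phosphatase activity; potency for inhibition where a drop in reporter signal means calcineurin blockade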
T5 sequence (B9W6M3 whole entry): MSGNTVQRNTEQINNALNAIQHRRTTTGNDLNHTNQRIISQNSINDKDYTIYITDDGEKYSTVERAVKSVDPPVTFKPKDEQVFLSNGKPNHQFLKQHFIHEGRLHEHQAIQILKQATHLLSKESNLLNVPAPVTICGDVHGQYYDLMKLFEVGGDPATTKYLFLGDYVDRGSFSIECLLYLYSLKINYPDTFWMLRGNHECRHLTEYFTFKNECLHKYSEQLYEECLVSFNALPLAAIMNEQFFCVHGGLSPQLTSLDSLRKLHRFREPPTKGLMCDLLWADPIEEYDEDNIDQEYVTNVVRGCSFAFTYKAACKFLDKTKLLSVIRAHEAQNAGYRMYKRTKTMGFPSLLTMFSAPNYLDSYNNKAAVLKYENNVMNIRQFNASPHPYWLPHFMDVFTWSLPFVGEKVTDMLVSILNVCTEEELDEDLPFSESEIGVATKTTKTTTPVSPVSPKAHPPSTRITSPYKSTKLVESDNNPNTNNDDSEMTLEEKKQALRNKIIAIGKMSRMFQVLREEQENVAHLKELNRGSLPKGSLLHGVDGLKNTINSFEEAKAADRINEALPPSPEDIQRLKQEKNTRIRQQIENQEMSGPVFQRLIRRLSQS

[28] = potency of ADAM10 substrate cleavage blockers – biochemical, QFRET, dose response (AID 743254);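 also: ADAM10 enzyme with the DM2 quenched FRET peptide as substrate; EDANS fluorescence gain as the protease cuts the substrate; inhibitor potency against ADAM10 proteolytic activity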
[29] = molecular target: ATP-dependent molecular chaperone HSP82 (Candida albicans (strain WO-1) (Yeast), UniProt C4YTQ8); assay: steroid-induced GRE reporter decrease in yeast – S. cerevisiae, luminescence, Hsp90 inhibitor project, dose response (AID 2400); format: functional, cell-based;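 also: beta-galactosidase luminescence from glucocorticoid response element reporter as proxy for Hsp90 function; inhibitor potency where signal loss means Hsp90 inhibition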
[30] = NIH-3T3 fibroblast cytotoxicity, dose response, cytotoxicity control, cell-based, fluorescence, Alamar Blue, secondary assay (AID 2327); format: functional;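 also: NIH-3T3 mouse fibroblasts cultured with fluconazole at 8 µg/mL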
[31] = ATP-based viability loss in HEK293T cells – cell-based, CellTiter-Glo luminescence, cherry-picked samples, set 4, cytotoxicity control, dose response (AID 743441); format: functional; settings: HEK293
[32] = HepG2 viability loss by ATP level – cell-based, CellTiter-Glo luminescence, cherry-pick, set 4, cytotoxicity control, dose response (AID 743480); format: functional

T1 sequence (P02675 whole entry, the tested form may be a part): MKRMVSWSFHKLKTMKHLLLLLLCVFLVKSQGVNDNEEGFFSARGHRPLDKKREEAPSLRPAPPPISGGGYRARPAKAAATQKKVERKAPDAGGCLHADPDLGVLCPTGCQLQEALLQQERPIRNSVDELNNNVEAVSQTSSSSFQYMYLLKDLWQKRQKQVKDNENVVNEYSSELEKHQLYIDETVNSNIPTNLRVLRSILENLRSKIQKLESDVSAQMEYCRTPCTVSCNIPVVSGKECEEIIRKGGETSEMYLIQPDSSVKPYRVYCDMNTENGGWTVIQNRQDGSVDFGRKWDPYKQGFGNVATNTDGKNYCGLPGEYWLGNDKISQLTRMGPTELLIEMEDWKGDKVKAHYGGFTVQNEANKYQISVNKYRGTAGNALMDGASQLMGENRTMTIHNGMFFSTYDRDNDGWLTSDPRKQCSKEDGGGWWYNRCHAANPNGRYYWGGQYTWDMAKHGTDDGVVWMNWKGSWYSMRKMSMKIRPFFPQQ
T3 sequence (P49327 whole entry, the tested form may be a part): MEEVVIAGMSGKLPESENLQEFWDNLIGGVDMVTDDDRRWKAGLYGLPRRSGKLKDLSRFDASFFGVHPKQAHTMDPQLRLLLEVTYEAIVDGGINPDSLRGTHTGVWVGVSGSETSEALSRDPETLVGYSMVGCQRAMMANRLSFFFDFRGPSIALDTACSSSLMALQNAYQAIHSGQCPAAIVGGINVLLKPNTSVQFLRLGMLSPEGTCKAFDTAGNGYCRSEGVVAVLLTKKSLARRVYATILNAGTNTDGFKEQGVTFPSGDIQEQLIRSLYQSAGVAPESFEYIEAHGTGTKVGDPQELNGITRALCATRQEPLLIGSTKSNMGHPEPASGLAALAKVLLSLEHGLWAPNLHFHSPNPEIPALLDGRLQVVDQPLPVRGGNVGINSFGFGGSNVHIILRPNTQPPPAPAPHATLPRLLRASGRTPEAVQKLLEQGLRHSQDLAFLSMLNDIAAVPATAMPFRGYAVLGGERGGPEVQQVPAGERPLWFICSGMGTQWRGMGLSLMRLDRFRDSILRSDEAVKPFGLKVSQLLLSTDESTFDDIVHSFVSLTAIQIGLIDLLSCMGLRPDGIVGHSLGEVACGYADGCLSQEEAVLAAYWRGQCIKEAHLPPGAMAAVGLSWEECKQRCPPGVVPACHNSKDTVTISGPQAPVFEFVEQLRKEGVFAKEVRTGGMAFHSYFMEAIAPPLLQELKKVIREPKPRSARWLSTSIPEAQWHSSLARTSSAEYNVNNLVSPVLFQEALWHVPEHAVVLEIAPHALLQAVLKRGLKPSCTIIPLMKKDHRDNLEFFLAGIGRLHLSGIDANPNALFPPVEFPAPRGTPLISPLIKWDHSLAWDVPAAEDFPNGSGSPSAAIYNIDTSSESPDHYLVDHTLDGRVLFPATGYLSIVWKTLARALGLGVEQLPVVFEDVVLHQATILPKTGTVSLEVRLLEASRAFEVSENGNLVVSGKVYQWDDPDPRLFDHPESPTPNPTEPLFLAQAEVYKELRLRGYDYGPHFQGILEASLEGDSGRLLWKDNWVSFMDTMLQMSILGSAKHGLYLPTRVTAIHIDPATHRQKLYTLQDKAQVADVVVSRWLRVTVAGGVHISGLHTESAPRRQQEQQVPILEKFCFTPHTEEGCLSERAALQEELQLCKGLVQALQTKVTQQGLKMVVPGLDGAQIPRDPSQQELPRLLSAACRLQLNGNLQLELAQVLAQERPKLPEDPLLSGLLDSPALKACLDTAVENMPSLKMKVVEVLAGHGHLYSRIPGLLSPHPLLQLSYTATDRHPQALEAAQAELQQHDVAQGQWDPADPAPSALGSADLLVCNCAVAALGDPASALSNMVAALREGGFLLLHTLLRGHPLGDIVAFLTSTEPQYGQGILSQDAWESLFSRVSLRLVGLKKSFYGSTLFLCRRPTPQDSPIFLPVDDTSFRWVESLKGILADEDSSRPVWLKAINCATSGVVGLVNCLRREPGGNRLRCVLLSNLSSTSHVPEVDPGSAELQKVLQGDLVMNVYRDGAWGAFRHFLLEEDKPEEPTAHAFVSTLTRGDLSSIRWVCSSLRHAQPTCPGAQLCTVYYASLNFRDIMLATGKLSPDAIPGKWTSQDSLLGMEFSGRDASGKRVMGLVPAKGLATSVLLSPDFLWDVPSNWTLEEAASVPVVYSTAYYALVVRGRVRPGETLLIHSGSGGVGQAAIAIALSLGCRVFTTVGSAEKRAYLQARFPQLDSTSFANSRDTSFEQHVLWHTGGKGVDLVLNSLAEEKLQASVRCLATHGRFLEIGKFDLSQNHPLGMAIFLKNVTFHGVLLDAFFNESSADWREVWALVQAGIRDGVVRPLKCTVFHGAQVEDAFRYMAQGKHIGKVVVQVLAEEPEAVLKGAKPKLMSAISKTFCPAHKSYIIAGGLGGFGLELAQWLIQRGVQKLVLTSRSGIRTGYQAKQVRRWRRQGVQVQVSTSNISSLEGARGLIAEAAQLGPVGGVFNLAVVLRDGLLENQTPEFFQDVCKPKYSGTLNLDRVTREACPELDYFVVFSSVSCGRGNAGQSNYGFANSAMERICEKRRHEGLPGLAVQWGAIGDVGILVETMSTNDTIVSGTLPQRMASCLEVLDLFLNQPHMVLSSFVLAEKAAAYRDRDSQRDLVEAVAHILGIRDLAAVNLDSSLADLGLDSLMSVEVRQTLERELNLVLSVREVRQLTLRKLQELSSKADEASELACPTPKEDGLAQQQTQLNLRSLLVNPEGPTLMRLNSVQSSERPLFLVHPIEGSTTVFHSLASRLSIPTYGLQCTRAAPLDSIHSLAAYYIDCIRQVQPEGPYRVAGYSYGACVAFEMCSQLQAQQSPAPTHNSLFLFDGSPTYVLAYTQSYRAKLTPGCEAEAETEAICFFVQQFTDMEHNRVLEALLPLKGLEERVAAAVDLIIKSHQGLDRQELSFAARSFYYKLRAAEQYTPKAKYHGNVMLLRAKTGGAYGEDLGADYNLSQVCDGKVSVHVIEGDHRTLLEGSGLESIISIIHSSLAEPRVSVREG
Disintegrin and metalloproteinase domain-containing protein 17, sequence (P78536 whole entry, the tested form may be a part): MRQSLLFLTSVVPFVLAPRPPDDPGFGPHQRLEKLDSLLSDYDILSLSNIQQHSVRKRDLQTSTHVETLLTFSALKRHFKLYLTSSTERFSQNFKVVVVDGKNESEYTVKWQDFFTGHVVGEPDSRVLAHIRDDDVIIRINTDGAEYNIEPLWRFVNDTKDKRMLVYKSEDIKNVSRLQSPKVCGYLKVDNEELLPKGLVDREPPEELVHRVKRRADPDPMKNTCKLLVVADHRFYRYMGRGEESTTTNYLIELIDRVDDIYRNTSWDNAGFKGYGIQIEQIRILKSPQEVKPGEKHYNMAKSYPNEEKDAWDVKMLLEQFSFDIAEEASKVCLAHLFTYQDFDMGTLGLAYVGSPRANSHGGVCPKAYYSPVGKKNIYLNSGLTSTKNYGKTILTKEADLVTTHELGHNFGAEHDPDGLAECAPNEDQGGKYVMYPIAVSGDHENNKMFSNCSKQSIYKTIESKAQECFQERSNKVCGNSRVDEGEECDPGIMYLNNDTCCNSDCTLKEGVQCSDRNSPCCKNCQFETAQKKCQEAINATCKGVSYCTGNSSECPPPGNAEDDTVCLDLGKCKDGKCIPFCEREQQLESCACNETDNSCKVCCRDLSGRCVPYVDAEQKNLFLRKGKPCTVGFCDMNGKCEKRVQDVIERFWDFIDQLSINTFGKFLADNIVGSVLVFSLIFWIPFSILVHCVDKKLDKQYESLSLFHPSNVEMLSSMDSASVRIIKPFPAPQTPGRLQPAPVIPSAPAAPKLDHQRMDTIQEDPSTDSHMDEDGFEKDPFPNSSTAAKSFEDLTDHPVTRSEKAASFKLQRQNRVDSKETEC
ATP-dependent molecular chaperone HSP82, sequence (C4YTQ8 whole entry): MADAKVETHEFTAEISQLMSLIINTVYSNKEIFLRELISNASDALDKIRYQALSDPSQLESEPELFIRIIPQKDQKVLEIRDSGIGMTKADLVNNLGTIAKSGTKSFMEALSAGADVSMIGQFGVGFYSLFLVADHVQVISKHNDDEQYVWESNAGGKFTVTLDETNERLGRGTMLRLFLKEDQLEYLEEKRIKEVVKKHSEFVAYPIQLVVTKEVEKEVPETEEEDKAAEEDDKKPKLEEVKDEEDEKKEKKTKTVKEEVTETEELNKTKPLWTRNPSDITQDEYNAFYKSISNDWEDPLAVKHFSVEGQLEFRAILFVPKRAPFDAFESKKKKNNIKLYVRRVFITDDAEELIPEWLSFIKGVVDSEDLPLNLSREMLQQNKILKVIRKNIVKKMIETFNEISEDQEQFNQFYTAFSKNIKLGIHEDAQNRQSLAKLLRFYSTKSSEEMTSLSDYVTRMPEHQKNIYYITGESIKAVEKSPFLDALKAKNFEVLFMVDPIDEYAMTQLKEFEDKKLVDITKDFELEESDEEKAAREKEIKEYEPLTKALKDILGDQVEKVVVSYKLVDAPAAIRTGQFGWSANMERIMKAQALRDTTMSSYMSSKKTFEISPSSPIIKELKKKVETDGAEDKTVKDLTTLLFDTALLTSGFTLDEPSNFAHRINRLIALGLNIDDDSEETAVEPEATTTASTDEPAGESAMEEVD
Paired box protein Pax-8, sequence (Q06710 whole entry): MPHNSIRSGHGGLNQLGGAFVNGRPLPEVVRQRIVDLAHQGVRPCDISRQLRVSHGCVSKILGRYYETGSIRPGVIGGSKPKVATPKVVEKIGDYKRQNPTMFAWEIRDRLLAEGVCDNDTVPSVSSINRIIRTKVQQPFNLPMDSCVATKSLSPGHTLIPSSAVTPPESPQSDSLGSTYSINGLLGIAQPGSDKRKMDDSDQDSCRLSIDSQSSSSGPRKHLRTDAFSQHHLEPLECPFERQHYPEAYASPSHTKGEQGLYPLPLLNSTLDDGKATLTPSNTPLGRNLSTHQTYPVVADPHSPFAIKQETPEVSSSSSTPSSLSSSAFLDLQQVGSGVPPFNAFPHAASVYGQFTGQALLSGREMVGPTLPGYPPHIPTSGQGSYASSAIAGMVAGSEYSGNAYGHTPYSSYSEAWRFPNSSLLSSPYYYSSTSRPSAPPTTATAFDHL
Protein Tat, sequence (P04608 whole entry, the tested form may be a part): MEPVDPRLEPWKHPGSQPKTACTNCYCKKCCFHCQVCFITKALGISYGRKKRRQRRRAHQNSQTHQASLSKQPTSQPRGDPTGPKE

SMILES: CC1CCCCN1Cc1c(O)ccc2c(=O)c(-c3nc4ccccc4s3)coc12 (stereo unspecified)
AC50 [1]: 40.4 µM (active)
AC50 (cells [2]): 47 µM (active)
AC50 (cells [3]): 44.8 µM (active)

SMILES: COc1ccc2c(c1)C(C)=CC(C)(C)N2S(=O)(=O)c1ccc(Br)cc1
AC50 [4]: 8.79 µM (active)
AC50 [5]: 16 µM (active)
AC50 [6]: 63 µM (active)
AC50 [7]: 75.6 µM (active)
AC50 [8]: 15.3 µM (active)
AC50 [9]: 4.64 µM (active)
AC50 [10]: 5.9 µM (active)
AC50 [11]: 12 µM (active)
AC50 (Paired box protein Pax-8): 7.63 µM (active)
AC50 [12]: 5.89 µM (active)
EC50 [13]: 2.06 µM (active)
AC50 [14]: 8.49 µM (active)
EC50 [15]: 1.05 µM (active)

AC50 (Cytochrome P450 3A4): 25.1 µM (inconclusive)
EC50 (Kallikrein-7): 13.1 µM (inactive)
SMILES: CCN(CC)Cc1c(O)ccc2c(=O)c(Oc3ccccc3OC)coc12

IC50 [16]: > 100 µM (active)
IC50 (Protein Tat): > 100 µM (active)
SMILES: CCOC(=O)c1cc(NC(=O)N2CCCc3ccccc32)c(C)nc1C

IC50 (Fibrinogen beta chain [17]): > 83.3 µM (inactive)
IC50 [18]: 6.94 µM (active)
IC50 (Fatty acid synthase [19]): 13.5 µM (active)
IC50 (Fibrinogen beta chain [20]): > 83.3 µM (inactive)
IC50 (Fatty acid synthase [21]): 12.3 µM (active)
IC50 [22]: 10.1 µM (not active)
SMILES: O=C(Nc1ccc(Cl)cc1)c1csc(-c2ccccc2)n1

SMILES: COCCNC(=O)c1ccc2c(c1)CCN2S(C)(=O)=O
IC50 [23]: > 83.3 µM (inactive)
IC50 [24]: > 109 µM (inactive)

SMILES: Cc1cc(C)c(-c2cc(NC(=O)COC(=O)c3ccc(C#N)cc3)n(-c3ccccc3)n2)cc1C
IC50 [25]: > 69.5 µM (inactive)
EC50 [26]: 0.092 µM (active)
EC50 [27]: > 180 µM (inactive)
IC50 [28]: > 69.5 µM (inactive)
EC50 [29]: > 160 µM (inactive)
EC50 [30]: > 150 µM (inactive)

SMILES: CCn1c(S)nnc1-c1cc(-c2ccc(OC(C)C)cc2)nc2ccccc12
AC50 [31]: > 52 µM (inactive)
AC50 [32]: > 52 µM (inactive)
